# Reference: US20150087627A1, “COMBINATION OF KINASE INHIBITORS AND USES THEREOF” (Intellikine LLC, priority 2011, published 2015)
# What was measured:
# Type in all cases: biochemical
# PI3K γ (p110γ) = target: T1, PI3K γ (p110γ) (Homo sapiens, UniProt P48736); assay: PI 3-Kinase (human) HTRF assay, PI3K γ; conditions: read-out: PI3K γ IC50
# T1 construct: purchased Upstate / Millipore Corporation
# PI3K β (p110β/p85α) = target: T2, PI3K β (p110β/p85α) (Homo sapiens, UniProt P42338); assay: PI 3-Kinase (human) HTRF assay, PI3K β; conditions: read-out: PI3K β IC50
# T2 construct: purchased Upstate / Millipore Corporation
# PI3K α (p110α/p85α) = target: T3, PI3K α (p110α/p85α) (Homo sapiens, UniProt P42336); assay: PI 3-Kinase (human) HTRF assay, PI3K α; conditions: read-out: PI3K α IC50
# T3 construct: purchased Upstate / Millipore Corporation
# Description: Briefly, the assay is a time resolved FRET assay that indirectly measures PIP3 product formed by the activity of a PI3-K. The kinase reaction is performed in a microtiter plate (e.g., a 384 well microtiter plate). The total reaction volume is approximately 20 ul per well. In the first step, each well receives 2 ul of test compound in 20% dimethylsulphoxide resulting in a 2% DMSO final concentration. […] The plate is sealed and incubated for 15 minutes at room temperature. […] The plate is sealed and incubated for 1 hour at room temperature. The reaction is stopped by adding 5 ul of Stop Solution per well and then 5 ul of Detection Mix is added per well. The plate is sealed, incubated for 1 hour at room temperature, and then read on an appropriate plate reader. Data is analyzed and IC50s are generated using GraphPad Prism 5.
# PI3K δ = target: T4, PI3K δ (Homo sapiens, UniProt O00329); assay: PI 3-Kinase (human) HTRF assay, PI3K δ; conditions: read-out: PI3K δ IC50
# T4 construct: purchased Upstate / Millipore Corporation
# T4 sequence (O00329 whole entry): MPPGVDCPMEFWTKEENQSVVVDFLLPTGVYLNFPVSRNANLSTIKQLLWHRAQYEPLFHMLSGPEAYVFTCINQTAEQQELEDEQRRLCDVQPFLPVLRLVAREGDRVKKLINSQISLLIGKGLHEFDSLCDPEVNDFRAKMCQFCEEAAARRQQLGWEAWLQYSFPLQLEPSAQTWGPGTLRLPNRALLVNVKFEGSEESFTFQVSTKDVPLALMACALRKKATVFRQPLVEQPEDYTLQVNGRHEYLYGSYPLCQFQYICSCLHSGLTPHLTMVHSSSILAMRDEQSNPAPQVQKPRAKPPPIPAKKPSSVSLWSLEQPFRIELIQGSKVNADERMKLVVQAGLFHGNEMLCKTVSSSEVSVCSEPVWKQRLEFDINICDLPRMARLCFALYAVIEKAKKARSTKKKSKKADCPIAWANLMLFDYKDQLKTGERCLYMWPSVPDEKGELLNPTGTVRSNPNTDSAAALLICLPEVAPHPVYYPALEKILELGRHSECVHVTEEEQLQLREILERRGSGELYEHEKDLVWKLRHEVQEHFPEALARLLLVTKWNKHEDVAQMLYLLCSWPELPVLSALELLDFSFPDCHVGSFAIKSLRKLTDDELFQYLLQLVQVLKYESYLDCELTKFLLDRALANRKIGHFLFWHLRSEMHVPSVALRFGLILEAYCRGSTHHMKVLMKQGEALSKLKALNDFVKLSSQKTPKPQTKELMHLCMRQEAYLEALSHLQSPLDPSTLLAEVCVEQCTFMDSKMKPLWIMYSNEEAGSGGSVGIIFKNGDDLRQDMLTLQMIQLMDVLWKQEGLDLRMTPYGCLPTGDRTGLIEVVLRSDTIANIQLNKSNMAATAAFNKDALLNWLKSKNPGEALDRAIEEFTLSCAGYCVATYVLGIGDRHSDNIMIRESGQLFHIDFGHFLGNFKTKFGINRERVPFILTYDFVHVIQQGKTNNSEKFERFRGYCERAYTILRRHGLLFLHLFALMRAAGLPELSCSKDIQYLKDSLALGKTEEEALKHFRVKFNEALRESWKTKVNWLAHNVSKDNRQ
# T4 sequence (P27986 whole entry partner): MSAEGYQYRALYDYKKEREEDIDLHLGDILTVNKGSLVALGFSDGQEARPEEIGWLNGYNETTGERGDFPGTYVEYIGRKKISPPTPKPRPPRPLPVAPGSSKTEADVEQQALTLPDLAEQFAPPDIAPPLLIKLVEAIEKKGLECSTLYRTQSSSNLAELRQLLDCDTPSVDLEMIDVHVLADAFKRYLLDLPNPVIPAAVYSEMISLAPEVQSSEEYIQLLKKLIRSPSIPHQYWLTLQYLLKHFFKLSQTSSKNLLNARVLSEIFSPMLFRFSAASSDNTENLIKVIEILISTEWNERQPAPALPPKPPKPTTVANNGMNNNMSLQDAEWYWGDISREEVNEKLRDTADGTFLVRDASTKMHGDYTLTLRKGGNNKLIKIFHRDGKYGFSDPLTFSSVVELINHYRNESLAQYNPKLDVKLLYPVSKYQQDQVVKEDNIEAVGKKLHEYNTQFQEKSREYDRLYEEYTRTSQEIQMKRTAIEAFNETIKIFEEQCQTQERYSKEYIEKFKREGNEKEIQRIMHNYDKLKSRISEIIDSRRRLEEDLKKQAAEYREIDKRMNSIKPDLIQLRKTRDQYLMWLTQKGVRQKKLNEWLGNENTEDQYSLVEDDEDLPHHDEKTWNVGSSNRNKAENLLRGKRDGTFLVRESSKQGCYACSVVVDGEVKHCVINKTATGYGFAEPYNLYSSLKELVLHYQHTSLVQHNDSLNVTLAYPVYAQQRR
# T2 sequence (P42338 whole entry): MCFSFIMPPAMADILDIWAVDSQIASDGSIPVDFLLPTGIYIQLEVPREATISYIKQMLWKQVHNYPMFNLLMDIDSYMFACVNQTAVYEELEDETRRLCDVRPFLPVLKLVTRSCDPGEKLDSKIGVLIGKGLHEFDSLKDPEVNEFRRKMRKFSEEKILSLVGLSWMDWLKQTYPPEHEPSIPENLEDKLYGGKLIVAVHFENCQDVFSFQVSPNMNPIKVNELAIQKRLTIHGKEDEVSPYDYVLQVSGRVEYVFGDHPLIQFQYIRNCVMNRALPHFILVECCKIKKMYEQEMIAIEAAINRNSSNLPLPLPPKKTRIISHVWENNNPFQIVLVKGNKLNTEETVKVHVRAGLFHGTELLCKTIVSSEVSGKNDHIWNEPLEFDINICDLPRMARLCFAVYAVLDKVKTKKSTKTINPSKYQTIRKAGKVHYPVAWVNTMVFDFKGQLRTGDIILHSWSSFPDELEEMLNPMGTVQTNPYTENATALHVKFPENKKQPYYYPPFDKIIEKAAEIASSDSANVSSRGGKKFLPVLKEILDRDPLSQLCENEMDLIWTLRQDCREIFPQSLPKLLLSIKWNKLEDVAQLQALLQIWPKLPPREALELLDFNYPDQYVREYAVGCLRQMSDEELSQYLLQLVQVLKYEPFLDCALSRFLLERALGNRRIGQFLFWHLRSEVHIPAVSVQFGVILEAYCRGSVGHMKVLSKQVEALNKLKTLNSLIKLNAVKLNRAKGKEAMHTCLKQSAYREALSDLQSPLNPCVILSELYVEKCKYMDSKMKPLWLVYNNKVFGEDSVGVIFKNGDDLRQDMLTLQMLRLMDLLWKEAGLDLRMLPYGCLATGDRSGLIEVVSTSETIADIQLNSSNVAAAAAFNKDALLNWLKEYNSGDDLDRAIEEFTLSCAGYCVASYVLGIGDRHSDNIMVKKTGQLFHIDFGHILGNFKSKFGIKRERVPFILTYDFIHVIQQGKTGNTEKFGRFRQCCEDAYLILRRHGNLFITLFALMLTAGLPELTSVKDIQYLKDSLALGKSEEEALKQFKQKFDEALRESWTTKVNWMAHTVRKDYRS
# T2 sequence (P27986 whole entry partner): as the sequence (P27986 whole entry partner) above
# T3 sequence (P42336 whole entry): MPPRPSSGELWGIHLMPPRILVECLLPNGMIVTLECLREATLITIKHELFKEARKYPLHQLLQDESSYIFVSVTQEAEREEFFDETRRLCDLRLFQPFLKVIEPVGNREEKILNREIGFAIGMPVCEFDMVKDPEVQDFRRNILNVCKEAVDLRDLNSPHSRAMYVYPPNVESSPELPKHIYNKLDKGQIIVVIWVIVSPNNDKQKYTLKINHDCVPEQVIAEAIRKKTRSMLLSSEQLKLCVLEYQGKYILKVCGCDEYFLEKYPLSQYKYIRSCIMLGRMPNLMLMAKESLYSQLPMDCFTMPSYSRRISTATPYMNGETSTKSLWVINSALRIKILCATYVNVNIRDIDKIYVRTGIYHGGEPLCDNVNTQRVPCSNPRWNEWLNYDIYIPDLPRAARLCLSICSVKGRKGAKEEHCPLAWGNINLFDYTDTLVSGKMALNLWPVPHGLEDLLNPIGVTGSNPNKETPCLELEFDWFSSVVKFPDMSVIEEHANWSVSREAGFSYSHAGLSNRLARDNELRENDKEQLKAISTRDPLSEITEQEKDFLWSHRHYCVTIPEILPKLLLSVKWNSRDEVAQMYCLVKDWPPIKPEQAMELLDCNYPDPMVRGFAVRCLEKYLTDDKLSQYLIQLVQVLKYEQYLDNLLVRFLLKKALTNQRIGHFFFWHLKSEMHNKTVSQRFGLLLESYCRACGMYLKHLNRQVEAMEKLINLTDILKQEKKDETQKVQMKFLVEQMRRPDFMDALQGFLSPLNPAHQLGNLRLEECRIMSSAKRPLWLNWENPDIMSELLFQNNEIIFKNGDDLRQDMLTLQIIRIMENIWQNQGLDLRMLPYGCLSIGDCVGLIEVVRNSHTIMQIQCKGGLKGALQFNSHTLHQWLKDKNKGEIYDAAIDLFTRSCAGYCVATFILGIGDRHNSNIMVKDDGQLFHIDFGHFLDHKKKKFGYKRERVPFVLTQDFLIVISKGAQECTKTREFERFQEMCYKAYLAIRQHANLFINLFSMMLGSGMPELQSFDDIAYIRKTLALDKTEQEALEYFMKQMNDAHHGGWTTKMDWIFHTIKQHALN
# T3 sequence (P27986 whole entry partner): as the sequence (P27986 whole entry partner) above
# T1 sequence (P48736 whole entry): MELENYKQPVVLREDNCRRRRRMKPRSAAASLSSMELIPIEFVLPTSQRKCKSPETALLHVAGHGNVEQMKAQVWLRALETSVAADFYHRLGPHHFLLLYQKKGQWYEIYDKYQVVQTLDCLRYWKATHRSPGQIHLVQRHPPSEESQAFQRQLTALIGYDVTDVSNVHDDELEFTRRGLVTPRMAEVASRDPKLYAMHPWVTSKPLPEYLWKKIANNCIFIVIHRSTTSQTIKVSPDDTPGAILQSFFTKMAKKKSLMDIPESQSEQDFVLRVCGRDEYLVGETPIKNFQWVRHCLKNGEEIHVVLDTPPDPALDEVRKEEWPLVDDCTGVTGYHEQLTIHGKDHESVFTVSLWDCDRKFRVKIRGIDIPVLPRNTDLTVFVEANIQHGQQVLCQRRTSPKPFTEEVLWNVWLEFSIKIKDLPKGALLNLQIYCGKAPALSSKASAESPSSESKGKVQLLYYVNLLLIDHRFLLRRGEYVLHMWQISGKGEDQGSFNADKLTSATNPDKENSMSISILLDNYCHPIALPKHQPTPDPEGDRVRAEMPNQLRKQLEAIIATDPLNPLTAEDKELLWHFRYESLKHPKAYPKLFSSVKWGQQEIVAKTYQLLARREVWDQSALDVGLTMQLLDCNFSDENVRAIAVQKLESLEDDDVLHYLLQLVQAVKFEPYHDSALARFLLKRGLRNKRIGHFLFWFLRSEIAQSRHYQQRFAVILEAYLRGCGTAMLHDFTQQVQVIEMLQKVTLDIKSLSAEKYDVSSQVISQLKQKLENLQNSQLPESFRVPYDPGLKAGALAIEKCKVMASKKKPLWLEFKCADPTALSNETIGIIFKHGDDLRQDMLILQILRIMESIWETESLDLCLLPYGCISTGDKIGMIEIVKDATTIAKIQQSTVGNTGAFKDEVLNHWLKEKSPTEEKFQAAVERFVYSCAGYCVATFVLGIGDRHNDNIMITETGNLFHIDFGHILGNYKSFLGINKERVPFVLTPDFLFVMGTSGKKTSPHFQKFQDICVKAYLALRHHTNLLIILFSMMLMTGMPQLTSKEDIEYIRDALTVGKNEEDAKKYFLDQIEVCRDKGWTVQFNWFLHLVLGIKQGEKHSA
SMILES,IC50 (PI3K γ (p110γ)),IC50 (PI3K β (p110β/p85α)),IC50 (PI3K α (p110α/p85α)),IC50 (PI3K δ)
Nc1nc2cc(-c3ccc4ncc(N5CCN(CC(F)(F)F)CC5)nc4c3)ccc2o1 [Compound 395],< 0.1 µM,> 10 µM,< 0.1 µM,> 10 µM
C[C@H]1CN(c2cnc3ccc(-c4ccc5oc(N)nc5c4)cc3c2)CCN1 [Compound 396],< 10 µM,< 0.1 µM,< 0.1 µM,> 10 µM
Cc1cc(-c2ccc3oc(N)nc3c2)cc2c(-c3ccncc3)cnn12 [Compound 397],< 0.1 µM,< 1 µM,< 0.1 µM,< 1 µM
Nc1nc2cc(-c3ccn4ncc(C(=O)N5CCC(N6CCOCC6)CC5)c4c3)ccc2o1 [Compound 398],< 10 µM,< 10 µM,< 1 µM,< 10 µM
C[C@H]1CN(c2cnc3scc(-c4ccc5oc(N)nc5c4)c3c2)CCN1 [Compound 399],> 10 µM,> 10 µM,> 10 µM,> 10 µM
CC(=O)Nc1cc2ccc(-c3cc(F)c4oc(N)nc4c3)cn2n1 [Compound 401],< 10 µM,> 10 µM,> 10 µM,> 10 µM
C[C@H]1CN(c2nc3cc(-c4ccc5oc(N)nc5c4)ccc3nc2N)CCN1 [Compound 403],> 10 µM,> 10 µM,< 10 µM,> 10 µM
O=C(c1cnc2ccc(-c3ccc4oc(Nc5ccccc5)nc4c3)cn12)N1CCOCC1 [Compound 407],> 10 µM,< 10 µM,> 10 µM,> 10 µM
CN1CCC(Nc2nc3cc(-c4ccc5ncc(C(=O)N6CCOCC6)n5c4)ccc3o2)CC1 [Compound 408],> 10 µM,> 10 µM,> 10 µM,> 10 µM
O=C(c1cnc2ccc(-c3ccc4oc(NC5CC5)nc4c3)cn12)N1CCOCC1 [Compound 409],> 10 µM,> 10 µM,< 10 µM,> 10 µM
Nc1ncc(-c2ccc3ncc(C(=O)N4CCOCC4)n3c2)cc1C(F)(F)F [Compound 410],> 10 µM,> 10 µM,< 10 µM,> 10 µM
CC(Oc1nc(-c2ccc3ncc(C(=O)N4CCOCC4)n3c2)cnc1N)C(F)(F)F (stereo not shown) [Compound 411],< 1 µM,< 10 µM,< 0.1 µM,< 10 µM
Nc1nc2nc(-c3ccc4ncc(C(=O)N5CCOCC5)n4c3)ccc2o1 [Compound 412],> 10 µM,> 10 µM,< 10 µM,> 10 µM
Nc1nc2cc(-c3ccc4ncc(N5CCNC(C(F)F)C5)nc4c3)ccc2o1 (stereo not shown) [Compound 413],< 1 µM,< 1 µM,< 0.1 µM,< 10 µM
COc1ncc(-c2ccc3ncc(C(=O)N4CCOCC4)n3c2)cc1NS(C)(=O)=O [Compound 416],< 1 µM,< 10 µM,< 0.1 µM,< 10 µM
COc1ncc(-c2ccc3ncc(C(=O)N4CCOCC4)n3c2)cc1NS(=O)(=O)c1ccccc1 [Compound 420],< 1 µM,> 10 µM,< 0.1 µM,< 1 µM
COc1ncc(-c2ccc3ncc(C(=O)N4CCOCC4)n3c2)cc1NS(=O)(=O)c1ccc(F)cc1 [Compound 421],< 0.1 µM,< 1 µM,< 0.1 µM,< 0.1 µM
COc1ncc(-c2ccc3ncc(C(=O)N4CCOCC4)n3c2)cc1NS(=O)(=O)c1ccccc1F [Compound 422],< 0.1 µM,< 10 µM,< 0.1 µM,< 1 µM
O=C(c1cnc2ccc(-c3cncc(NS(=O)(=O)c4ccccc4)c3)cn12)N1CCOCC1 [Compound 424],< 1 µM,> 10 µM,< 1 µM,< 10 µM
O=C(c1cnc2ccc(-c3cncc(NS(=O)(=O)c4ccc(F)cc4F)c3)cn12)N1CCOCC1 [Compound 425],< 0.1 µM,> 10 µM,< 0.1 µM,< 1 µM
CC(=O)n1nc(N)c2ccc(-c3ccc4oc(N)nc4c3)cc21 [Compound 426],> 10 µM,> 10 µM,> 10 µM,> 10 µM
Nc1nc2cc(-c3ccc4c(N)n[nH]c4c3)ccc2o1 [Compound 428],< 1 µM,< 10 µM,< 10 µM,> 10 µM
Nc1nc2cc(-c3cc(F)c4oc(N)nc4c3)ccc2o1 [Compound 432],< 0.1 µM,< 1 µM,< 10 µM,> 10 µM
CC(=O)Nc1nc2cc(-c3cc(F)c4oc(N)nc4c3)ccc2s1 [Compound 435],< 0.1 µM,< 10 µM,< 10 µM,> 10 µM
Nc1nc2cc(-c3ccc4sc(N)nc4c3)cc(F)c2o1 [Compound 437],< 1 µM,< 1 µM,< 10 µM,> 10 µM

SMILES,IC50 (PI3K γ (p110γ)),IC50 (PI3K β (p110β/p85α)),IC50 (PI3K α (p110α/p85α)),IC50 (PI3K δ)
Nc1nc2ccc(-c3cc(F)c4ncc(C(=O)N5CCOCC5)n4c3)cc2o1 [Compound 439],> 10 µM,> 10 µM,< 10 µM,> 10 µM
CNS(=O)(=O)c1cccc(-c2ccc3ncc(C(=O)N4CCOCC4)n3c2)c1 [Compound 442],> 10 µM,> 10 µM,> 10 µM,> 10 µM
CS(=O)(=O)Nc1cccc(-c2ccc3ncc(C(=O)N4CCOCC4)n3c2)c1 [Compound 443],> 10 µM,> 10 µM,> 10 µM,> 10 µM
CN1CCN(n2cnc3ccc(-c4ccc5oc(N)nc5c4)cc3c2=O)CC1 [Compound 446],> 10 µM,> 10 µM,< 1 µM,> 10 µM
Cc1cc(-c2ccc3oc(N)nc3c2)cn2c(C(=O)N3CCOCC3)cnc12 [Compound 448],< 10 µM,> 10 µM,< 1 µM,> 10 µM
Cc1cc(-c2ccc3nc(N)oc3c2)cn2c(C(=O)N3CCOCC3)cnc12 [Compound 449],< 0.1 µM,< 1 µM,< 1 µM,> 10 µM
CNS(=O)(=O)c1cncc(-c2ccc3ncc(C(=O)N4CCOCC4)n3c2)c1 [Compound 450],> 10 µM,> 10 µM,< 10 µM,> 10 µM
O=C(c1cnc2ccc(-c3cccc(NS(=O)(=O)c4ccccc4)c3)cn12)N1CCOCC1 [Compound 453],< 10 µM,> 10 µM,< 10 µM,> 10 µM
O=C(c1cnc2ccc(-c3cccc(NS(=O)(=O)c4ccc(F)cc4F)c3)cn12)N1CCOCC1 [Compound 454],< 10 µM,> 10 µM,< 10 µM,< 10 µM
COc1ccc(-c2ccc3ncc(C(=O)N4CCOCC4)n3c2)cc1NS(C)(=O)=O [Compound 456],> 10 µM,> 10 µM,> 10 µM,> 10 µM
O=C(c1cnc2ccc(-c3cnc(Cl)c(NS(=O)(=O)c4ccc(F)cc4)c3)cn12)N1CCOCC1 [Compound 457],< 0.1 µM,< 0.1 µM,< 0.1 µM,< 0.1 µM
O=C(c1cnc2ccc(-c3cnc(Cl)c(NS(=O)(=O)c4cccc(F)c4)c3)cn12)N1CCOCC1 [Compound 458],< 0.1 µM,< 0.1 µM,< 0.1 µM,< 0.1 µM
CS(=O)(=O)Nc1cc(-c2ccc3ncc(C(=O)N4CCOCC4)n3c2)ccc1Cl [Compound 460],> 10 µM,> 10 µM,< 10 µM,> 10 µM
CO[C@H]1CCN(C(=O)c2cnc3ccc(-c4ccc5oc(N)nc5c4)cn23)C1 [Compound 463],< 1 µM,< 10 µM,< 0.1 µM,< 10 µM
CO[C@@H]1CCN(C(=O)c2cnc3ccc(-c4ccc5oc(N)nc5c4)cn23)C1 [Compound 464],< 1 µM,> 10 µM,< 0.1 µM,> 10 µM
Nc1nc2cc(-c3ccc4ncc(C(=O)N5CC[C@H](N6CCOCC6)C5)n4c3)ccc2o1 [Compound 465],< 1 µM,> 10 µM,< 0.1 µM,> 10 µM
Nc1nc2cc(-c3ccc4ncc(C(=O)N5CC[C@@H](N6CCOCC6)C5)n4c3)ccc2o1 [Compound 466],< 1 µM,< 10 µM,< 1 µM,< 10 µM
COC1CN(C(=O)c2cnc3ccc(-c4ccc5oc(N)nc5c4)cn23)C1 [Compound 467],< 0.1 µM,< 10 µM,< 0.1 µM,< 10 µM
Nc1nc2cc(-c3ccc4ncc(C(=O)N5CC(F)C5)n4c3)ccc2o1 [Compound 468],< 0.1 µM,< 10 µM,< 0.1 µM,> 10 µM
Nc1nc2cc(-c3ccc4ncc(C(=O)N5CC(N6CC[C@H](O)C6)C5)n4c3)ccc2o1 [Compound 469],< 1 µM,< 10 µM,< 0.1 µM,< 10 µM
Nc1nc2cc(-c3ccc4ncc(C(=O)N5CCC(F)(F)C5)n4c3)ccc2o1 [Compound 471],< 0.1 µM,> 10 µM,< 0.1 µM,> 10 µM
Nc1nc2cc(-c3ccc4ncc(C(=O)N5CC(F)(F)C5)n4c3)ccc2o1 [Compound 473],< 0.1 µM,> 10 µM,< 0.1 µM,> 10 µM
Nc1nsc2c(-c3ccc4ncc(C(=O)N5CCOCC5)n4c3)cccc12 [Compound 474],> 10 µM,> 10 µM,< 10 µM,> 10 µM
Nc1nc2cc(-c3ccc4ncc(C(=O)N5CC[C@H](F)C5)n4c3)ccc2o1 [Compound 476],< 0.1 µM,> 10 µM,< 0.1 µM,> 10 µM
